In patent US8475775B1, “Retinoids and use thereof” (The UAB Research Foundation, priority 2012, dated 2013):

What was measured:
Type in all cases: in vivo
hairless SKH1-E mice [1] = test: Epidermal hyperplasia on dorsal skin (marker of retinoid activity), 14-day topical application; conditions: for epidermal hyperplasia grading, average: dorsal skin, scale of 0=none to 5=marked
Description: (§1) UAB30, 4Me-UAB30 and UAB111 at 0.1% and 0.3%, tazarotene at 0.1% and vehicle were applied topically on approximately 8 cm2 (2×4 cm) of the dorsal skin (100 μL) and on the right ear (20 μL).
(§2) The test compounds were UAB30, 4Me-UAB30 and UAB111. Tazarotene (0.1% cream) was purchased by Ricerca Taiwan Ltd. The three compounds at 0.1% and 0.3%, Tazarotene (0.1% cream) and vehicle (70% ethanol/30% propylene glycol) were each administered topically on the back (100 μL) and on the right ear (20 μL) once daily for two weeks.
(§3) Female SKH1-E hairless mice (Crl:SKH1-Hrhr) weighing 22±2 g were used. The animals were divided into groups of 5 each. Once a day, 100 μl of vehicle, tazarotene, and test articles were applied on the back with a micropipette and smeared evenly with gloved finger on approximately 8 cm2 (2×4 cm) of the dorsal skin; 20 μl was applied to the right ear. The tested animals were treated for two consecutive weeks. Body weight was monitored twice a week.
(§4) Epidermal hyperplasia on the dorsal skin was used as a marker of retinoid activity. For histological evaluation, mice were sacrificed on day 15. The dorsal skin was dissected and stretched to the natural size on the filter. Punch biopsies (ED 8 mm) were obtained, fixed in 10% buffered formalin, and embedded in paraffin. Five micro thick sections were cut, stained with H&E, and a representative section of each biopsy was selected for histological evaluation.
(§5) For histological evaluation, the dorsal skin was dissected and stretched to the natural size on the filter. Punch biopsies (ED 8 mm) were obtained, fixed in 10% buffered formalin, and embedded in paraffin. Five micro thick sections were cut, stained with H&E, and a representative section of each biopsy was selected for histological evaluation. Right ear was harvested on day 15 for measurements of myeloperoxidase activity by mouse MPO ELISA kit, a measure of neutrophil infiltrates.

hairless SKH1-E mice [2] = test: Ear myeloperoxidase (MPO) by mouse MPO ELISA kit, measure of neutrophil infiltrates; conditions: harvested day 15
Description: as §1, §2, §3, §5

hairless SKH1-E mice [3] = test: Skin irritation on dorsal skin (erythema, desquamation, lesions/abrasion), visual score; conditions: for Mean skin irritation score: scale of 0-4
Description: as §1, §2, §3
Erythema, desquamation (skin flaking), and skin lesions/abrasion on dorsal skin were assessed visually in individual animals at the end of a 2-week treatment and scored on a scale of 0 to 4+, with 4+being maximal. • 0: Normal • 1+: Mild erythema • 2+: Moderate erythema • 3+: Severe erythema/Desquamation • 4+: Lesions/abrasion.

hairless SKH1-E mice [4] = test: Histopathology of dorsal skin: hyperkeratosis/serocellular crust, utriculus formation, sebaceous gland hyperplasia; conditions: of 5 mice per group
Description: as §3, §4, §5

[5] = 0.1% topical once daily for 14 days
[6] = 0.1% topical 20 μL on right ear for 14 days

Row | Compound | epidermal hyperplasia grading, average (hairless SKH1-E mice [1]; [5]) | ear Myeloperoxidase (MPO), marker of neutrophil infiltration (hairless SKH1-E mice [2]; [6]) | Mean skin irritation score (hairless SKH1-E mice [3]; 0.1% topical for 14 days) | epidermal hyperplasia grading, average (hairless SKH1-E mice [1]; 0.3% topical once daily for 14 days) | incidence of epidermal hyperplasia compared to 0.1% Tazarotene (hairless SKH1-E mice [1]; 14-day topical, histopathology, concentration not specified (0.1% and 0.3% groups)) | ear Myeloperoxidase (MPO), marker of neutrophil infiltration (hairless SKH1-E mice [2]; 0.3% topical 20 μL on right ear for 14 days) | skin irritation, observation in words (hairless SKH1-E mice [3]; 0.1% topical for 14 days, groups of 5) | Mean skin irritation score (hairless SKH1-E mice [3]; 0.3% topical for 14 days) | Hyperkeratosis and/or serocellular crust, number of mice affected (hairless SKH1-E mice [4]; 0.1% topical for 14 days) | Hyperkeratosis and/or serocellular crust, number of mice affected (hairless SKH1-E mice [4]; 0.3% topical for 14 days)
1 | CCOC(=O)c1ccc(C#Cc2ccc3c(c2)C(C)(C)CCS3)nc1 [Tazarotene, reference compound] | 2 | marked increase | 3 | – | – | – | – | – | – | –
2 | CC(=C/C=C/C(C)=C/C(=O)O)/C=C1\CCCc2ccccc21 [UAB30, (2E,4E,6E,8E)-8-(3′,4′-Dihydro-1′(2′H)-naphthalen-1′-ylidene)3,7-dimethyl-2,4,6-octatrienoic acid] | 1.8 | no effect | – | 2 | comparable incidence | no effect | did not cause any irritation | 1 | 1 | not reported
